What was measured:
[1] = patients with hypertrophic cardiomyopathy; no control group; cited from earlier work
[2] = Clinical safety and tolerability evaluation with electrocardiogram, repeated oral administration (Example 2); format: in vivo, human; details: cohorts 4 and 5: 200 mg once a day for 5 days and 300 mg once a day for 14 days, healthy subjects
[3] = Clinical safety and tolerability evaluation with 12-electrode electrocardiogram, single oral administration (Example 1); details: healthy subjects; for QRS / QTcF: oral
Protocol: Randomized, double-blind, placebo-controlled, sequential, ascending, single dosing studies were conducted to evaluate safety, tolerability, pharmacokinetics and pharmacodynamics of cibenzoline.
In this study, a total of 24 subjects were randomly assigned 1:1:1 to three cohorts and proceeded in a total of four stages: screening, treatment period 1, withdrawal period, and treatment period 2. The ratio between the dosed group and the non-dosed group (placebo) is assigned as 6:2.
The main endpoints are safety, tolerability and side effects, and the clinical test items are corrected QT interval (calculated by Fridericia formula) [QTc(F)]), QT interval, and QRS interval, PR interval, and 12-electrode electrocardiogram including ventricular rate, vital signs (blood pressure, pulse, body temperature, respiration rate), hypersensitivity reaction (determined by electrocardiogram recording and vital signs), clinical inspection evaluation (hematology, blood chemistry, urinalysis, etc.), adverse reactions (including serious adverse reactions).

[4] = Cohort 1: 200 mg once, Day 1, 1.5 h after administration
[5] = Cohort 1: 200 mg once, Day 1, 3 h after administration
[6] = Cohort 1: 200 mg once, Day 1, 8 h after administration
[7] = Cohort 1: 200 mg once, Day 1 before administration (baseline)
[8] = Cohort 2: 300 mg once, Day 1, 1.5 h after administration
[9] = Cohort 2: 300 mg once, Day 1, 3 h after administration
[10] = Cohort 2: 300 mg once, Day 1, 8 h after administration
[11] = Cohort 2: 300 mg once, Day 1 before administration (baseline)

## c1ccc(C2(c3ccccc3)CC2C2=NCCN2)cc1 (racemic) [cibenzoline, 2-(2,2-diphenylcyclopropyl)-4,5-dihydro-1H-imidazole]
[1]
  side effects compared with disopyramide: fewer side effects than disopyramide

## c1ccc(C2(c3ccccc3)CC2C2=NCCN2)cc1 (stereo not drawn) [S(−)-cibenzoline]
[2]
  effects of QcTF and QRS prolongation (electrocardiography): QcTF and QRS prolongation were confirmed
[2]; compared to cohort 6 (racemic mixture 150 mg 3 times a day, 14 days)
  side effects for multiple administration (safety and tolerability): did not cause significant side effects
[3]; 200 mg and 300 mg once a day, single oral administration, compared to cohort 3 (racemic mixture 150 mg 3 times a day)
  side effects (safety and tolerability): did not cause significant side effects
[3]; [4]
  QRS: 102 ms
  QTcF: 412 ms
[3]; [5]
  QRS: 107 ms
  QTcF: 426 ms
[3]; [6]
  QRS: 99 ms
  QTcF: 408 ms
[3]; [7]
  QRS: 92 ms
  QTcF: 406 ms
[3]; [8]
  QRS: 107 ms
  QTcF: 419 ms
[3]; [9]
  QRS: 116 ms
  QTcF: 429 ms
[3]; [10]
  QRS: 107 ms
  QTcF: 415 ms
[3]; [11]
  QRS: 101 ms
  QTcF: 411 ms
[3]; cohorts 1 and 2: 200 mg and 300 mg, single oral administration
  effects of QcTF and QRS prolongation (electrocardiography): QcTF and QRS prolongation were confirmed
